The record followed here is patent US20240158386A1, “BENZOXAZOLONE INHIBITORS OF INFLAMMASOMES” (ICAHN SCHOOL OF MEDICINE AT MOUNT SINAI, priority 2021, published 2024).

The subject of one assay is NLRP3. The assay can be described thus: In-vivo assessment of C77: brain cytokines in LPS-treated mice. Also on record: species or system WT C57BL/6J mice. As for the experimental part:
(§1) Cytokine quantification. IL-1β in cell supernatants and brain tissue samples—after the different treatment groups—was quantified using the Mouse IL-1 beta/IL-1F2 DuoSet ELISA kit (R&D systems), IL-6 in cell culture supernatant was measured through the Mouse IL-6 ELISA kit (ThermoFisher), TNF-α in cell culture supernatants was determined using the Mouse TNF-alpha DuoSet ELISA (R*D systems), and IL-18 in brain tissue was measured through the IL-18 Mouse ELISA Kit (Invitrogen) following the manufacturers' recommended protocol. IL-1β precursor and cleaved IL-1β in the FC of mice treated with vehicles, LPS, or C77-LPS was assessed by western blot. All samples were run in technical duplicates.
Animals used in in-vivo assessments. WT C57BL/6J mice (stock #000664) were obtained from The Jackson Laboratory. Mice were housed in groups of five animals per cage on a 12:12 hours light/dark cycle. Water and food were provided ad libitum. 8-10 weeks males were used for experiments. All procedures were approved by the Institutional Animal Care and use Committee of the Icahn School of Medicine at Mount Sinai.
In-vivo assessment of C77. The ability of C77 to inhibit NLRP3 in-vivo was evaluated using WT C57BL/6J mice. C77 (50 mg/kg), or the same volume of DMSO vehicle, was intraperitoneally injected 2 hours before of LPS (15 mg/kg) or vehicle (PBS) administration. 1.5 hours later, the animals were sacrificed and their brain was isolated. Cortex, frontal cortex, hippocampus, and cerebellum regions from the right hemisphere were obtained for IL-1β analysis. The left hemisphere was used for gene expression analysis. N=5 animals per group.

A further assay has as its target T1, AIM2 inflammasome (Mus musculus, UniProt Q91VJ1).
T1 construct: endogenous in cells; host or cells: primary microglia from NLRP3 KO mice
T1 sequence (Q91VJ1 1-354): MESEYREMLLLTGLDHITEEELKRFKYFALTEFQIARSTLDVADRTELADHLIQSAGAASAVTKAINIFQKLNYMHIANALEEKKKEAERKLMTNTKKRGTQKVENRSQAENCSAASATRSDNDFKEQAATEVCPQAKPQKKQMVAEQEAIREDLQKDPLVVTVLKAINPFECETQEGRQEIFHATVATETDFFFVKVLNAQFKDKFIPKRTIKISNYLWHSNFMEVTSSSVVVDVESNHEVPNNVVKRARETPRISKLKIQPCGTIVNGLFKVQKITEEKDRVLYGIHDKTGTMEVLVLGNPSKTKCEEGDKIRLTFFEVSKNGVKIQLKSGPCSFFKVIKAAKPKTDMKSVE
The assay can be described thus: AIM2 inflammasome activation assay: IL-1β release, microglia from NLRP3 KO mice, LPS and poly(dA:dT). Format: cell-based. How it is done:
AIM2, NLRP7, and NLRC4 inflammasomes activation assays. Microglia from NLRP3 KO mice were pre-treated with 100 μM C75, C78, C97, or C77, during one hour. AIM2 inflammasome activation was induced through the addition of 100 ng/ml LPS for 2 hours, followed by transfection of 1 μg poly(dA:dT) using Lipofectamine 2000 during 2 hours, following the manufacturer recommendations. NLRC4 was activated by treatment with 150 ng/ml LPS for 2 hours, before transfection of 1 μg flagellin during 2 hours, using lipofectamine 2000 as transfection reagent. Negative and positive controls were pre-treated with the same DMSO percentage as cells treated with the inhibitors. Negative controls were kept untreated after DMSO addition, while LPS-poly(dA:dT) or LPS-flagellin was added to positive controls for AIM2, and NLRC4 activation, respectively. For activation of the NLRP7 inflammasome different conditions were assessed: treatment of WT microglia cultures with 400 ng/ml fibroblast-stimulating lipopeptide-1 (fsl-1) for 7 hours, priming with 150 ng/ml LPS for 1 hour and treatment with 400 ng/ml fsl-1 for 7 hours, and priming with 150 ng/ml LPS and transfection of 400 ng/ml fsl-1 with lipofectamine. MCC950 was used as a negative control for NLRC4 and AIM-2 inhibition. […]
Cytokine quantification. […] IL-1β precursor and cleaved IL-1β in the FC of mice treated with vehicles, LPS, or C77-LPS was assessed by western blot. […]

A further assay deals with T2, NLRP3 inflammasome (Mus musculus, UniProt Q8R4B8).
T2 construct: endogenous in cells; host or cells: primary microglia from cortices of 2-3 day old WT mouse pups
T2 sequence (Q8R4B8 whole entry): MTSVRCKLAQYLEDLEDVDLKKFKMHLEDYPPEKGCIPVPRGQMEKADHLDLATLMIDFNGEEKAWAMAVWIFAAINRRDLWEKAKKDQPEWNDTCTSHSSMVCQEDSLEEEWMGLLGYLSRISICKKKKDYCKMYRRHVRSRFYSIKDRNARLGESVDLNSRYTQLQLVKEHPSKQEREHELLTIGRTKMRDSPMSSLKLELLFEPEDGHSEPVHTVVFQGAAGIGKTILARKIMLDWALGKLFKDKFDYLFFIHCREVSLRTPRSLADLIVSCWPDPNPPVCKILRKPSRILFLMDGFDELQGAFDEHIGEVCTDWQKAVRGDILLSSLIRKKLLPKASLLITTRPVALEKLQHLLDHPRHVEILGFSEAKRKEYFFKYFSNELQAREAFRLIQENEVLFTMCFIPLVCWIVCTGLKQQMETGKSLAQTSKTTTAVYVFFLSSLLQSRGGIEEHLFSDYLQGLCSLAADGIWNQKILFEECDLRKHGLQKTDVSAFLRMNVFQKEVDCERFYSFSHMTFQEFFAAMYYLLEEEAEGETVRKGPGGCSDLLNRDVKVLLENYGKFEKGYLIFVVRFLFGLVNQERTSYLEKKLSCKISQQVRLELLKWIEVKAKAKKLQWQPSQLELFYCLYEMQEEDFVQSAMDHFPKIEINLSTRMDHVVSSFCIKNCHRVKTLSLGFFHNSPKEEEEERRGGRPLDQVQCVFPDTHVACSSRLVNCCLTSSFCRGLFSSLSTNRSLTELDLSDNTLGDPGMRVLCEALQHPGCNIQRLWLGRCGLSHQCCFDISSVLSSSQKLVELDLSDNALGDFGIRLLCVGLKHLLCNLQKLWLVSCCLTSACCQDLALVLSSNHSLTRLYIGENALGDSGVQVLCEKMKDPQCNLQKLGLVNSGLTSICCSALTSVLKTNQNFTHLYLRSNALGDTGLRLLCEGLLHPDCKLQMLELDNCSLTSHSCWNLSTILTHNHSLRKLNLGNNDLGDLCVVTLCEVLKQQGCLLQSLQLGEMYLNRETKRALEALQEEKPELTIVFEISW
Description: NLRP3 inflammasome activation assay: IL-1β release by primary microglia after LPS and ATP. Format: cell-based, murine. How it is done:
Murine primary microglia. Mixed cortical cultures were prepared as previously described (Bronstein, R. et al. J. Vis. Exp. JoVE 50647 (2013) doi:10.3791/50647). Briefly, cortices from 2-3 days old, WT, or NLRP3 KO pups were isolated, digested, and seeded at a density of 8 cortices per 10 ml petri dish. Every three days, the medium was replaced by fresh culture medium (DMEM, 10% FBS, 1% penicillin-streptomycin). After three weeks, mixed glial cultures had reached confluence, and microglia cells were isolated by mild trypsinization as previously described (Saura, J. et al. Glia 44, 183-189 (2003)). In brief, cells were washed with culture medium without FBS and treated with a mixture of trypsin 0.25% (without EDTA) and DMEM-F12 medium in a 1:3 proportion. After an incubation period of approximately 40 min, an intact layer of mixed glial cells detached, leaving microglia attached firmly to the bottom of the Petri-dish. Pure microglia were then isolated by 15 min incubation with trypsin (0.05%)-EDTA at 37° C., followed by gentle shaking. Cells were counted and seeded at the desired density, typically 7.5·10^4 cells/well in 24 well-plates.
NLRP3 inflammasome activation assay. Primary microglia cultures were incubated with the compounds that inhibited IL-1β production in THP1 macrophages. Cells pretreated with 100 μM of the compounds—or with the same DMSO volume, in the case of control samples—were primed with 400 ng/ml LPS for 3 hours, and activated with 4.5 mM ATP for 45 minutes or […] nigericin for 1 hour. Dose-response curves were conducted by incubating microglia cultures with different concentrations of the selected compounds, ranging from 0.001 to 100 μM, 1 hour before NLRP3 activation with LPS and ATP. Supernatants were collected for IL-1β and toxicity assessments.
as §1

Where [1] appears, read: 50 mg/kg IP 2 hours before 15 mg/kg LPS IP.

Where two headings read alike, the source gives them in different places.

Take `O=C(Cn1c(=O)oc2ccccc21)NCc1cncc(-c2ccsc2)c1` [Compound C77]: in the assay on NLRP3 (setting [1]), the “IL-1β levels in the cerebellum” value is reported as “significantly reduced IL-1β levels”, the “IL-1β levels in the frontal cortex” value was “significantly reduced IL-1β levels”, the “IL-1β levels in the hippocampus” value is on record as “significantly reduced IL-1β levels” and the “IL-18 levels in the frontal cortex” value is “significantly reduced IL-18 levels”. In the assay on NLRP3 (frontal cortex of mice treated with C77-LPS), the “cleaved IL-1β versus pro IL-1β by western blot” value is “reduces the cleaved form of IL-β and not pro IL-1β”. The “inhibition of AIM2-mediated IL-1β release” value against AIM2 inflammasome is “did not inhibit”. In addition, the “inhibition of IL-1β release upon NLRP3 activation” value against NLRP3 inflammasome (100 μM compound, microglia, LPS and ATP) is given as “inhibited NLRP3 with statistical significance”. In addition, the “concentrations exerting inhibitory effects on NLRP3-mediated IL-1β” value on NLRP3 inflammasome (FIG. 2C, microglia, LPS and ATP) is reported as ≥ 100 nM. Besides, on NLRP3 inflammasome (FIG. 3A, read-out: NLRP3 IC50), the IC50 turned out to be 3.54 ± 1.3 µM. For the same compound, the “[Cx] to reach 100% of inhibition” value on NLRP3 inflammasome (IL-1β release, microglia, LPS and ATP) is “lower than 25 μM”. Further, the IC50 at NLRP3 inflammasome (IL-1β release, microglia, LPS and ATP, nonlinear fit of dose-response, read-out: IC50) turned out to be 4.1 ± 2.1 µM.
